Measured values from ChEMBL document CHEMBL6087394, “Immune Checkpoint-Modulating Photosensitizer That Targets BRD4 for Cancer Photoimmunotherapy” (J Med Chem, 2024).
Calls of active or inactive are those of the source. The calls are words filed in the database; no cut-off is given here.

Legend:
[1] = Photophysical property of the compound assessed as maximum fluorescent emission peak at by fluorescence at 10 uM spectrophotometric analysis; format: physicochemical
[2] = Induction of ROS generation in PBS buffer assessed as increase in superoxide anion radical level by measuring increase in DHR123 fluorescence intensity at 5 uM irradiated with 660 nm 20 mW/cm2 light for upto 7 mins by DHR123 probe based fluorescence spectra analysis; format: functional
[3] = Induction of singlet oxygen production in PBS buffer assessed as decrease in absorption signal at 410 nm under light irradiation with 660 nm 20 mW/cm2 by ABDA based microplate reader analysis relative to control; format: functional
[4] = Drug uptake in human MDA-MB-231 cells assessed as increase in fluorescence intensity at 2.5 uM measured after 2 hrs by flow cytometry analysis; format: ADME, cell-based; settings: mda-mb-231, 2 h
MDA-MB-231 [5] = test: Induction of ROS production in human MDA-MB-231 cells assessed as increase in green fluorescent intensity at 0.1 uM preincubated with compound for 2 hrs followed by light irradiation for 10 mins by DCFH-DA probe based flow cytometry; format: functional, cell-based; settings: time 130.0 min
MDA-MB-231 [6] = test: Induction of ROS production in human MDA-MB-231 cells assessed as increase in green fluorescent intensity at 0.1 uM preincubated with compound for 2 hrs followed by light irradiation for 10 mins in presence of NaN3 by DCFH-DA probe based flow cytometry; format: functional, cell-based; settings: time 130.0 min
MDA-MB-231 [7] = test: Induction of ROS production in human MDA-MB-231 cells assessed as increase in green fluorescent intensity at 0.1 uM preincubated with compound for 2 hrs followed by light irradiation for 10 mins in presence of tiron by DCFH-DA probe based flow cytometry; format: functional, cell-based; settings: time 130.0 min
MDA-MB-231 [8] = test: Cytotoxicity against human MDA-MB-231 cells assessed as reduction in cell viability upto 10 uM incubated for 24 hrs by CCK-8 assay; format: functional, cell-based
[9] = Phototoxicity against human MDA-MB-231 cells assessed as reduction in cell viability preincubated with compound for 2 hrs followed by light irradiation with 660 nm 20 mW/cm2 for 10 mins and measured after 24 hrs by CCK-8 assay; format: functional, cell-based; settings: MDA-MB-231, light or radiation study
MDA-MB-231 [10] = test: Induction of cell death in human MDA-MB-231 cells assessed as increase in bright red signal at 0.5 uM preincubated with compound for 2 hrs followed by light irradiation with 660 nm 20 mW/cm2 for 10 mins and measured after 12 hrs by Calcein-AM staining based inverted fluorescence microscopic analysis; format: functional; settings: time 850.0 min
[11] = molecular target: T1, Bromodomain-containing protein 4 (Homo sapiens, UniProt O60885); test: Inhibition of BRD4 (unknown origin) incubated for 120 mins by TR-FRET assay
MDA-MB-231 [12] = test: Induction of pyroptosis in human MDA-MB-231 cells assessed as cell swelling at 0.25 uM preincubated with compound for 2 hrs followed by light irradiation with 660 nm 20 mW/cm2 for 10 mins and measured after 24 hrs by CLSM imaging analysis; format: functional, cell-based; settings: time 1570.0 min
MDA-MB-231 [13] = test: Induction of pyroptosis in human MDA-MB-231 cells assessed as formation of large bubbles on plasma membrane at 0.25 uM preincubated with compound for 2 hrs followed by light irradiation with 660 nm 20 mW/cm2 for 10 mins and measured after 24 hrs by CLSM imaging analysis; format: functional, cell-based; settings: time 1570.0 min
MDA-MB-231 [14] = test: Induction of pyroptosis in human MDA-MB-231 cells assessed as increase in GSDME-N expression at 0.25 uM preincubated with compound for 2 hrs followed by light irradiation with 660 nm 20 mW/cm2 for 10 mins and measured after 24 hrs by Western blot analysis; format: functional, cell-based; settings: time 1570.0 min
MDA-MB-231 [15] = test: Induction of pyroptosis in human MDA-MB-231 cells assessed as increase in cleaved caspase -3 expression at 0.1 uM preincubated with compound for 2 hrs followed by light irradiation with 660 nm 20 mW/cm2 for 10 mins and measured after 24 hrs by Western blot analysis; format: functional, cell-based; settings: time 1570.0 min
MDA-MB-231 [16] = test: Induction of pyroptosis in human MDA-MB-231 cells assessed as effect on cleaved GSDMD expression at 0.1 uM preincubated with compound for 2 hrs followed by light irradiation with 660 nm 20 mW/cm2 for 10 mins and measured after 24 hrs by Western blot analysis; format: functional, cell-based; settings: time 1570.0 min
MDA-MB-231 [17] = test: Induction of pyroptosis in human MDA-MB-231 cells assessed as effect on caspase-1 expression at 0.1 uM preincubated with compound for 2 hrs followed by light irradiation with 660 nm 20 mW/cm2 for 10 mins and measured after 24 hrs by Western blot analysis; format: functional, cell-based; settings: time 1570.0 min
MDA-MB-231 [18] = test: Effect on LDH level in human MDA-MB-231 cells preincubated with compound for 2 hrs followed by light irradiation with 660 nm 20 mW/cm2 for 10 mins and measured after 24 hrs; format: functional, cell-based; settings: time 1570.0 min
MDA-MB-231 [19] = test: Effect on IL-1beta level in human MDA-MB-231 cells preincubated with compound for 2 hrs followed by light irradiation with 660 nm 20 mW/cm2 for 10 mins and measured after 24 hrs by ELISA analysis; format: functional, cell-based; settings: time 1570.0 min
MDA-MB-231 [20] = test: Induction of cell death in human MDA-MB-231 cells assessed as increase in HMGB1 release in nucleus by immunofluorescence staining based analysis; format: functional
MDA-MB-231 [21] = test: Induction of ferroptosis in human MDA-MB-231 cells assessed as decrease in GSH level at 0.1 uM preincubated with compound for 2 hrs followed by light irradiation with 660 nm 20 mW/cm2 for 10 mins and measured after 12 hrs; format: functional, cell-based; settings: time 850.0 min
MDA-MB-231 [22] = test: Induction of ferroptosis in human MDA-MB-231 cells assessed as increase in intracellular LPO accumulation by measuring green fluorescence intensity at 0.1 uM preincubated with compound for 2 hrs followed by light irradiation with 660 nm 20 mW/cm2 for 10 mins and measured after 12 hrs; format: functional, cell-based; settings: time 850.0 min
MDA-MB-231 [23] = test: Induction of ferroptosis in human MDA-MB-231 cells assessed as reduction in GPX4 expression at 0.1 uM preincubated with compound for 2 hrs followed by light irradiation with 660 nm 20 mW/cm2 for 10 mins and measured after 12 hrs by Western blot analysis; format: functional, cell-based; settings: time 850.0 min
MDA-MB-231 [24] = test: Induction of autophagy in human MDA-MB-231 cells assessed as increase in ratio of LC3-II to LC3-I preincubated with compound for 2 hrs followed by light irradiation with 660 nm 20 mW/cm2 for 10 mins and measured after 12 hrs by Western blot analysis; format: functional, cell-based; settings: time 850.0 min
MDA-MB-231 [25] = test: Induction of autophagy in human MDA-MB-231 cells assessed as downregulation p62 expression preincubated with compound for 2 hrs followed by light irradiation with 660 nm 20 mW/cm2 for 10 mins and measured after 24 hrs by Western blot analysis; format: functional, cell-based; settings: time 1570.0 min
MDA-MB-231 [26] = test: Induction of DNA damage in human MDA-MB-231 cells assessed as upregulation of gamma-H2AX expression preincubated with compound for 2 hrs followed by light irradiation with 660 nm 20 mW/cm2 for 10 mins and measured after 24 hrs by Western blot analysis; format: functional, cell-based; settings: time 1570.0 min
MDA-MB-231 [27] = test: […] in human MDA-MB-231 cells assessed as decrease in RAD51 expression preincubated with compound for 2 hrs followed by light irradiation with 660 nm 20 mW/cm2 for 10 mins and measured after 24 hrs by Western blot analysis; format: functional, cell-based; settings: time 1570.0 min
MDA-MB-231 [28] = test: Down regulation of PD-L1 expression in human MDA-MB-231 cells incubated for 24 hrs by Western blot analysis; format: functional, cell-based; settings: dose 0.5-2.5 µM
MDA-MB-231 [29] = test: Down regulation of PD-L1 expression in human MDA-MB-231 cells at 0.1 uM preincubated with compound for 2 hrs followed by light irradiation with 660 nm 20 mW/cm2 for 10 mins and measured after 24 hrs by Western blot analysis; format: functional, cell-based; settings: time 1570.0 min
[30] = molecular target: T1, Bromodomain-containing protein 4; test: Inhibition of BRD4 in human MDA-MB-231 cells assessed as downregulation of c-Myc expression at 0.5 to 2.5 uM incubated for 24 hrs by Western blot analysis; format: cell-based; settings: dose 0.5-2.5 µM
[31] = Biodistribution in female BALB/c mouse tumor at 2.5 mg/kg, iv measured at 1 hr; format: ADME, organism-based, Neoplasm; settings: in vivo
[32] = Biodistribution in female BALB/c mouse tumor at 2.5 mg/kg, iv measured at 3 hrs; format: ADME, organism-based, Neoplasm; settings: in vivo
4T1 [33] = test: Antitumor activity against mouse 4T1 cells implanted in female BALB/c mouse assessed as inhibition of tumor growth at 2.5 mg/kg, iv preincubated with compound for 3 hrs followed by light irradiation with 660 nm 300 mW/cm2 for 3 min and measured after 14 days; format: functional, organism-based; settings: time 20343.0 min
4T1 [34] = test: Antitumor activity against mouse 4T1 cells implanted in female BALB/c mouse assessed as inhibition of tumor growth at 2.5 mg/kg, iv; format: functional, organism-based
[35] = Toxicity in BALB/c mouse implanted with mouse 4T1 cells at 2.5 mg/kg, iv; format: organism-based; settings: in vivo
[36] = Toxicity in BALB/c mouse implanted with mouse 4T1 cells assessed as heart damage at 2.5 mg/kg, iv measured after 14 days by H and E staining based analysis; format: organism-based; settings: in vivo, 336 h, time 14 day
[37] = Toxicity in BALB/c mouse implanted with mouse 4T1 cells assessed as liver damage at 2.5 mg/kg, iv measured after 14 days by H and E staining based analysis; format: organism-based; settings: in vivo, 336 h, time 14 day
[38] = Toxicity in BALB/c mouse implanted with mouse 4T1 cells assessed as spleen damage at 2.5 mg/kg, iv measured after 14 days by H and E staining based analysis; format: organism-based; settings: in vivo, 336 h, time 14 day
[39] = Toxicity in BALB/c mouse implanted with mouse 4T1 cells assessed as kidney damage at 2.5 mg/kg, iv measured after 14 days by H and E staining based analysis; format: organism-based; settings: in vivo, 336 h, time 14 day
4T1 [40] = test: Antitumor activity against mouse 4T1 cells implanted in female BALB/c mouse assessed as increase in CD4+ T cells at 2.5 mg/kg, iv preincubated with compound for 3 hrs followed by light irradiation with 660 nm 300 mW/cm2 for 3 min and measured after 14 days; format: functional, organism-based; settings: time 20343.0 min
4T1 [41] = test: Antitumor activity against mouse 4T1 cells implanted in female BALB/c mouse assessed as increase in CD8+ T cells at 2.5 mg/kg, iv preincubated with compound for 3 hrs followed by light irradiation with 660 nm 300 mW/cm2 for 3 min and measured after 14 days; format: functional, organism-based; settings: time 20343.0 min
4T1 [42] = test: Antitumor activity against mouse 4T1 cells implanted in female BALB/c mouse assessed as increase in T cell infiltration at 2.5 mg/kg, iv preincubated with compound for 3 hrs followed by light irradiation with 660 nm 300 mW/cm2 for 3 min and measured after 14 days; format: functional, organism-based; settings: time 20343.0 min

## CCN(CC)c1ccc2nc3c(cc(NCc4ccc(NC(=O)C[C@H]5N=C(c6ccc(Cl)cc6)c6c(sc(C)c6C)-n6c(C)nnc65)cc4)c4ccccc43)[s+]c2c1.[Cl-]
[1]
  Activity: Active
[2]
  Activity: Active
[3]
  Activity: Active
[4]
  Drug uptake: Active
MDA-MB-231 [5]
  Activity: Active
MDA-MB-231 [6]
  Activity: inactive
MDA-MB-231 [7]
  Activity: Active
MDA-MB-231 [8]
  Activity: Active
[9]
  IC50: 110 nM
MDA-MB-231 [10]
  Activity: Active
[11]
  IC50: 45 nM
MDA-MB-231 [12]
  Activity: Active
MDA-MB-231 [13]
  Activity: Active
MDA-MB-231 [14]
  Activity: Active
MDA-MB-231 [15]
  Activity: Active
MDA-MB-231 [16]
  Activity: inactive
MDA-MB-231 [17]
  Activity: inactive
MDA-MB-231 [18]
  Activity: Active
MDA-MB-231 [19]
  Activity: Active
MDA-MB-231 [20]
  Activity: Active
MDA-MB-231 [21]
  Activity: Active
MDA-MB-231 [22]
  Activity: Active
MDA-MB-231 [23]
  Activity: Active
MDA-MB-231 [24]
  Activity: Active
MDA-MB-231 [25]
  Activity: Active
MDA-MB-231 [26]
  Activity: Active
MDA-MB-231 [27]
  Activity: Active
MDA-MB-231 [28]
  Activity: Dose-dependent-effect
MDA-MB-231 [29]
  Activity: Active
[30]
  inhibition: Active
[31]
  Drug uptake: Active
[32]
  Drug uptake: Active
4T1 [33]
  Activity: Active
4T1 [34]
  Activity: Active
[35]
  Activity: Non-toxic
[36]
  Activity: Non-toxic
[37]
  Activity: Non-toxic
[38]
  Activity: Non-toxic
[39]
  Activity: Non-toxic
4T1 [40]
  Activity: Active
4T1 [41]
  Activity: Active
4T1 [42]
  Activity: Active
